US10576049B1, “Composition for improving function of aortic endothelial cell and use thereof” (XI'AN JIAOTONG UNIVERSITY, priority 2018, dated 2020)

Key:
Assay type in all cases: cell-based
[1] = test system: interleukin-6 (IL-6) mRNA in human aortic endothelial cells (HAEC); experiment: IL-6 mRNA level detection (RT-PCR) in palmitic acid-induced inflammation of human aortic endothelial cells; settings: 500 μM palmitic acid 24 h, versus control group, HAEC (FIG. 1)
Protocol: (§2) In each of the three experiment groups, the cells were respectively cultured at an atmosphere of 95% air and 5% CO2 at 37° C. in wells of a 12-well cell culture plate for the following mRNA level detection, and in wells of a 6-well cell culture plate for the following protein detection. After the cell density of the three experiment groups were all cultured to 40% to 50%, the composition was added to the cells of group III. The composition was comprised of the acetic acid, lactic acid, polyoxyethylene castor oil (EL-12), and disodium alkyl polyoxyethylene sulfosuccinate (A-102) in the mass ratio of 1:2.2:1.8:1.5. Different concentrations of the composition were obtained by diluting the composition by adding a solvent having a volume of 20, 100, or 1000 times of the composition. […]
(§3) The detecting of mRNA levels corresponding to interleukin-6 and matrix metalloproteinase-1 was carried out by using reverse transcription RNA and real-time quantitative polymerase chain reaction (PCR), and the specific method is as follows:
(§4) The medium for cell culture in the wells was removed. […] The concentration of the solution was measured by an ultraviolet spectrophotometer. […]

[2] = test system: matrix metalloproteinase-1 (MMP-1) mRNA in human aortic endothelial cells (HAEC); experiment: MMP-1 mRNA level detection (RT-PCR) in palmitic acid-induced inflammation of human aortic endothelial cells; settings: 500 μM palmitic acid 24 h, versus control group, HAEC (FIG. 1)
Protocol: as §2, §3, §4

[3] = test system: mitochondrial complex I in human aortic endothelial cells; experiment: Western blot of mitochondrial complex I expression in palmitic acid-treated human aortic endothelial cells; settings: 500 μM palmitic acid 24 h alone, versus control, HAEC, Western blot (FIG. 2A, 2B)
Protocol: (§1) Human aortic endothelial cells (HAEC) were purchased from Shanghai Baili Biotechnology Co., Ltd. Palmitic acid was purchased from SIGMA Company. The cells were cultured in a constant-temperature, humidified, sterile incubator. The experiments were performed in three experiment groups: I. control; II. 500 μM palmitic acid treatment; and III. composition protecting. In each of the three experiment groups, the cells were respectively cultured at an atmosphere of 95% air and 5% CO2 at 37° C. in wells of a 12-well cell culture plate for the following mRNA level detection, and in wells of a 6-well cell culture plate for the following protein detection. After the cell density of the three experiment groups were all cultured to 40% to 50%, the composition was added to the cells of group III. […] The supernatants were collected, and the proteins therein were quantified by bicinchoninic acid (BCA) assay, and normalized. […] Target proteins were detected by chemiluminescence. Referring to FIG. 1 to FIG. 3, the data obtained in the above-described experiments, for the amount of the mRNA and the proteins, were expressed in the diagrams in form of mean±SEM (SEM is standard error of mean), and the data were analyzed by using One-way ANOVA analysis method with statistical significance p values of * meaning p<0.05, ** meaning p<0.01, *** meaning p<0.001. […]

[4] = test system: mitochondrial complex III in human aortic endothelial cells; experiment: Western blot of mitochondrial complex III expression in palmitic acid-treated human aortic endothelial cells; settings: 500 μM palmitic acid 24 h alone, versus control, HAEC, Western blot (FIG. 2A, 2B)
Protocol: as §1

[5] = test system: FoxO1 protein in human aortic endothelial cells; experiment: Western blot of FoxO1 protein expression in palmitic acid-treated human aortic endothelial cells; settings: 500 μM palmitic acid 24 h alone, versus control, HAEC
Protocol: as §1

## CCCCCCCCCCCCCCCC(=O)O [palmitic acid]
[1]
  increase of mRNA level corresponding to IL-6: about 12 times
[2]
  increase of mRNA level corresponding to MMP-1: about 5 times
[3]
  expression of mitochondrial complex I: reducing
[4]
  expression of mitochondrial complex III: reducing
[5]
  expression of FoxO1: reducing
